Consider two substances from PMC3677654, “Soy Glycinin Contains a Functional Inhibitory Sequence against Muscle-Atrophy-Associated Ubiquitin Ligase Cbl-b” (International Journal of Endocrinology, 2013).

The term IC50 denotes the concentration needed to halve the response being measured.

“Also recorded” adds a separate entry of the source.

The subject of test [1] is Cbl-b-mediated ubiquitination of IRS-1. The note with it: ref [4], cited from earlier work; for Inhibitory activity on Cbl-b-mediated IRS-1 ubiquitination: in words. From the text:
These peptides were kindly provided by Fuji Oil Co. (Osaka, Japan). […] A patent application was lodged for the sequence of this peptide (Pat. no. 5113346).

For test [2], the system named is interaction between Cbl-b and IRS-1. In words: Interaction between Cbl-b and IRS-1 in HEK293 cells (co-immunoprecipitation). The settings on record: 120 μM, anti-IRS-1 immunoprecipitates. Format: cell-based, human Cbl-b, rat IRS-1. The protocol: (§1) HEK293 cells (40–60% of confluence) were transfected with plasmid vectors, using Hily Max lipofection reagent (DOJINDO, Kumamoto, Japan), as described previously. The expression plasmids used in this study were pCEFL-human Cbl-b-HA, pcDNA3.1-rat IRS-1-V5, and pcDNA3-FLAG-Ubiquitin.
(§2) Immunoblot and immunoprecipitation analyses were performed as described previously. The following antibodies were used: anti-actin (Calbiochem, La Jolla, CA, USA), anti-HA.11 (BabCo, Richmond, CA, USA), anti-V5 (Invitrogen, Carlsbad, CA, USA), anti-FLAG M2 (Sigma, St. Louis, MO, USA), anti-IRS-1 (Upstate Biotechnology, Lake Placid, NY, USA), anti-Akt-1 (PharMingen International, Tokyo), and anti-phospho-S^473-Akt-1 (Cell Signaling Technology, Beverly, MA, USA).
Figure 3 Inhibitory effect of Cblin-like synthetic peptide on Cbl-b-mediated degradation and ubiquitination of IRS-1. HEK293 cells were transfected with mock vector/pCEFL-Cbl-b-HA, pcDNA3.1-rat IRS-1-V5, and pcDNA3-FLAG-Ubiquitin and then treated with 100 nM epoxomicin at 2 hours before treatment with each peptide at the indicated concentrations. One hour later, these cells were treated with 10 ng/mL IGF-1 for 1 hour. Immunoprecipitates (IP) from whole cell lysates incubated with an anti-IRS-1 antibody were subjected to immunoblot (IB) analysis for the indicated proteins. […]

Test [3] deals with denervated skeletal muscle of mice. The note with it: ref [4], cited from earlier work. The source says: Therefore, we hypothesized that foodstuffs that contain Cblin-like amino acid sequence can be used to prevent unloading-induced muscle atrophy.
In test [4] the test system is Cbl-b-mediated ubiquitination of IRS-1. The test can be described thus: Cbl-b-mediated IRS-1 ubiquitination in transfected HEK293 cells. The class given is cell-based, human Cbl-b, rat IRS-1. The settings on record: 120 μM, 10 ng/mL IGF-1 for 1 h, 100 nM epoxomicin, immunoblot. On the procedure:
HEK293 cells were maintained in Dulbecco's modified Eagle medium (DMEM) containing 10% fetal bovine serum, 100 U/mL penicillin, and 100 μg/mL streptomycin at 37°C under 5% CO2-[…] gas mixture.
as §1, §2
We used the following pentapeptides or hexapeptides derived from soy: soy-glycinin-derived peptide, soy-β-conglycinin-derived peptide, lipoprotein- (LP-) derived peptide, and soy protein isolate (SPI). These peptides were kindly provided by Fuji Oil Co. (Osaka, Japan). […] A patent application was lodged for the sequence of this peptide (Pat. no. 5113346). […] These peptides were kindly provided by Otsuka Pharmaceutical Co. (Tokushima, Japan). […]
Background: Immunoblotting shows a protein as a band on a membrane.

As to VGpYLR, in test [1], the “Inhibitory activity on Cbl-b-mediated IRS-1 ubiquitination” value was “no inhibitory activity against Cbl-b-mediated IRS-1 ubiquitination”.
On to DGpYMP [Cblin], for which the IC50 in test [1] (approximate) is about 120 µM. Further, the “Inhibitory activity on Cbl-b-mediated IRS-1 ubiquitination” value in test [1] was “exhibited inhibitory activity on Cbl-b-mediated IRS-1 ubiquitination; also recorded: inhibited Cbl-b-mediated ubiquitination and degradation of IRS-1 both in vitro and in vivo”. Also, in test [2], the “Inhibition of interaction between Cbl-b and IRS-1” value was “inhibited IRS-1 ubiquitination and interaction between Cbl-b and IRS-1”. The “Prevention of denervation-induced muscle atrophy” value in test [3] (mice) was “inhibited Cbl-b-mediated degradation of IRS-1, resulting in suppression of denervation-mediated muscle atrophy; also recorded: prevented denervation-induced muscle atrophy in mice”. For the same substance, the “Expression of MAFbx/atrogin-1” value in test [3] was “inhibited Cbl-b-mediated IRS-1 ubiquitination and expression of MAFbx/atrogin-1”. The “Inhibition of IRS-1 ubiquitination” value in test [4] is listed as “inhibited IRS-1 ubiquitination”.
